Data: patent US10525044B2, “Treatment for chemotherapy-induced peripheral neuropathy” (priority 2013, dated 2020)
Where “and” joins values, the source holds several entries; their conditions need not be identical. Identical values can stand only once. Entries after “also recorded” stand apart in the source; their conditions may differ.

Tests used:
[1] = tested on: intracellular free calcium; conditions: 5 μM; ischemic condition (19-fold increase); cited from earlier work
ribonucleotide reductase = biological target: T1, ribonucleotide reductase (Homo sapiens, UniProt P31350); conditions: cited from earlier work
T1 sequence (P31350 1-389): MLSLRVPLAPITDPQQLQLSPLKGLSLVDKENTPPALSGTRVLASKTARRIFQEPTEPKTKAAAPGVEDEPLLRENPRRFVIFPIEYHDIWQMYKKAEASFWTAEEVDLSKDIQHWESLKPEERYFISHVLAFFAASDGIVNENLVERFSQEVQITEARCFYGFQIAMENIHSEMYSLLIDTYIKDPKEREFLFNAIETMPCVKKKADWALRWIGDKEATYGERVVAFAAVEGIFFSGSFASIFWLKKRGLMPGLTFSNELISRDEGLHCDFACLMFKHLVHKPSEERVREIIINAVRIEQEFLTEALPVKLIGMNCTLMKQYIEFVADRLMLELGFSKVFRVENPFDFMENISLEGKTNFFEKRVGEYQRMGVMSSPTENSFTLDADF

[2] = tested on: mixed cortical and striatal neurons; assay: LDH assay (cell membrane integrity) in neuronal cell culture; type: cell-based
Procedure: Neuronal Cell Culture. Mixed cortical and striatal neurons fromembryonic day 17 male Sprague-Dawley rats (tissue obtained from NIH) were seeded into poly-D-lysine coated 96-well plates at density of 50,000 cells/well and initially cultured at 37° C., 5% CO2, in neurobasal medium (NB) with B27 supplement (Invitrogen) containing full strength of AOs to obtain highly enriched (95%) neurons. Since AOs, including vitamin E, vitamin E acetate, superoxide dismutase (SOD), catalase (CAT), and GSH, are additives to culture medium, reduction of AO concentration in culture medium provides an approach to determine the level of OS involvement in a neurotoxic process. In our study, the culture medium was replaced at a 50% ratio with NB plus B27 minus AOs twice at days 7 and 9 to set AO concentrations as 50% and 25%, respectively. At 16 days in vitro (d.i.v.), a fraction of the culture medium was harvested for lactate dehydrogenase (LDH) assay, and then AO concentration was reduced to 12.5% and cultured for a further 5 hours prior to ending the experiment.
(§1) Cell Insults and Treatments. Determination of concentration for each anticancer drug in our experiments was based on its reported concentration in human cerebral spinal fluid (CSF) in chemotherapy, literature report of its neurotoxicity in culture, and our preliminary in vitro experimental data. At 13 d.i.v., the neuronal cell cultures were insulted with 100 μM of MTX (M9929, Sigma), 25 μM of 5-FU (F6627, Sigma), or 3.5 μM of CDDP (sc-200896, Santa Cruz) for 3 days in absence or presence of PAN 811.Cl.H2O. For ROS examination, the neurons were insulted with both 100 μM of MTX and 25 μM of 5-FU by 15 d.i.v. PAN-811.Cl.H2O was added to cultures to final concentrations of 1.25, 2.5, 5, and 10 μM at the same time as addition of the anticancer drugs. For cancer cell lines, the cells were insulted by the second day of cell seeding with the same concentration of MTX, 5-FU, or CDDP as used in neuronal culture in the absence or presence of 10 μM PAN-811.Cl.H2O for another 3 days.
(§2) Quantitative Assays and Morphological Assessment. Cell membrane integrity and mitochondrial function of either neurons or cancer cells were measured with LDH and 3-(4,5-dimethylthiazol-2-yl)-5-(3-carboxymethoxyphenyl)-2-(4-sulfophenyl)-2H-tetrazolium [MTS] analyses, respectively. The latter has been used to quantify cell survival. For the LDH assay, a mixture of a 35 μL aliquot of culture supernatant and 17.5 μL of Mixed Substrate, Enzyme and Dye Solutions (Sigma) was incubated at room temperature (RT) for 30 minutes. For the MTS assay, 10 μL of MTS reagent (Promega) was added to a culture well containing neurons in 50 μL of medium. The preparations were incubated at 37° C. for 2 hours. The preparations for both assays were then spectrophotometrically measured at 490 nm using a 96-well plate reader (Mode 550, Bio-Rad). Neuronal cell death was morphologically determined based on the integrity of the cell soma and continuity of neuronal processes. The change in number of cancer cells was judged directly by cell density. Cells were photographed under an inverted phase contrast microscope (IX 70, Olympus) using 10× or 20× objective.
(§3) Data Analysis. Data were generated from 4-6 replicate wells, expressed as mean±standard deviation (SD), and statistically evaluated at a significance level of 1% with one factor ANOVA or Student's t-test by using software VASSARSTATS (http://vassarstats.net/) followed by the Tukey HSD test. Figure symbols are as follows: #, P<0.05, and ##, P<0.01, compared with control; *, P<0.05, and **, P<0.01, compared with the insulted group; §§, P<0.01, compared with PAN-811 treated group by Student's t-test.

[3] = tested on: human lung cancer cell line H460; assay: Cell density of H460 cells (phase contrast); type: cell-based
Procedure: (§4) Cancer Cell Culture. The mouse liver cancer cell line BNLT3 (gift of Dr. Jack Wands, Brown University) and the human lung cancer cell line H460 (ATCC) were seeded into 96-well plates at a density of 4,000 cells/well and cultured at 37° C., 5% CO2, in DMEM (11965, Gibco) supplemented with 10% fetal bovine serum, 20 mM HEPES, 1 mM sodium pyruvate, and […] gentamycin (all reagents came from Gibco).
as §1, §2

[4] = tested on: hydrogen peroxide-induced LDH release; conditions: cited from earlier work
sodium channel = conditions: cited from earlier work
cultured neuronal cells = conditions: cited from earlier work
[5] = tested on: middle cerebral artery occlusion (MCAo); conditions: cited from earlier work
[6] = tested on: human lung cancer cell line H460; assay: MTS assay in H460 cancer cells; type: cell-based
Procedure: as §4, §1, §2, §3

[7] = 3.5 μM CDDP and 10 μM PAN-811, 3 days
[8] = 25 μM 5-FU and 10 μM PAN-811, 3 days
[9] = 100 μM MTX and 10 μM PAN-811, 3 days
[10] = each agent alone, 3 days: MTX 100 μM, 5-FU 25 μM, CDDP 3.5 μM, PAN-811 10 μM

## NC(=S)N/N=C/c1ncccc1N [PAN-811, 3-aminopyridine-2-carboxaldehyde thiosemicarbazone]
[1]
  reduction of elevated intracellular free calcium: 72%
Ribonucleotide reductase
  ability to inhibit ribonucleotide reductase: inhibit
[2]; 5 μM PAN-811, 3.5 μM CDDP
  LDH release in CDDP-insulted cultures: fully blocked
[2]; 5 μM PAN-811, 25 μM 5-FU
  LDH release in 5-FU-insulted cultures: fully blocked
[2]; 5 μM PAN-811, 100 μM MTX
  LDH release in MTX-insulted cultures: fully blocked
[2]; 10 μM PAN-811, 100 μM MTX and 25 μM 5-FU
  MTX/5-FU-elicited LDH increase: fully inhibited
[2]; PAN-811 1.25 to 10 μM, 100 μM MTX and 25 μM 5-FU
  suppression of MTX/5-FU-elicited LDH release, concentration dependence: concentration-dependent suppression
[2]; neurons, MTX 100 μM, 5-FU 25 μM or CDDP 3.5 μM
  LDH increase caused by each anticancer drug, dose dependence: dose-dependently suppressed
[3]; [7]
  cell density, cotreatment with CDDP: greatly decreased the cell density
[3]; [8]
  cell density, cotreatment with 5-FU: robustly decreased the cell density
[3]; [9]
  cell density, cotreatment with MTX: robustly decreased the cell density
[3]; [10]
  cell density: robustly decreased the cell density; also recorded: greatly decreased the cell density
[4]; 1 μM, vs untreated/H2O2-insulted group
  suppression of hydrogen peroxide-induced LDH release: 78%
[4]; 10 μM, vs untreated and H2O2-insulted group
  suppression of hydrogen peroxide-induced LDH release, maximal protection: 90%
[4]; read-out: EC50, protection against hydrogen peroxide-induced LDH release
  EC50: ~550 nM
Sodium channel
  veratridine-induced sodium channel opening related to Ca2+ influx: prevents
Cultured neuronal cells; cells pretreated with 10 μM for 24 h
  neuroprotection against glutamate insult: Nearly complete neuroprotection
Cultured neuronal cells
  glutamate-induced excitatory cytotoxicity: prevents
[5]; PAN-811 treated groups collectively
  reduction of mortality: 44%
[5]; i.v., 2 mg/kg
  reduction in brain edema volume: 70%
[5]; single i.v. bolus, 2 mg/kg
  reduction of infarct volume, maximal protection: 50%
[6]; 3.5 μM CDDP and 10 μM PAN-811
  interaction with CDDP on suppression of H460 growth: synergistic effect
[6]; [7]
  reduction of MTS reading, cotreatment with CDDP: 85%
[6]; 10 μM PAN-811
  inhibition of the effect of MTX, 5-FU, or CDDP on cell growth of H460 cells: did not show any inhibition
[6]; 25 μM 5-FU and 10 μM PAN-811
  interaction with 5-FU on suppression of H460 growth: synergistic effect
[6]; [8]
  reduction of MTS reading, cotreatment with 5-FU: 84%
[6]; [9]
  MTS reading, cotreatment with MTX: about the same as 10 μM PAN-811 alone
[6]; [10]
  reduction of MTS reading: 76% and 74% and 75%
